According to patent US20240309059A1, “PEPTIDE HAVING ANTI-VIRAL ACTIVITY, ANTI-VIRAL AGENT COMPRISING SAID PEPTIDE, AND METHOD FOR PRODUCING SAID ANTI-VIRAL AGENT” (National University Corporation Tokyo Medical and Dental …, priority 2021, published 2024):
pIC50: −log10 of the molar value. Ends that are not written are not given here.

Tests used:
[1] = test system: SARS-COV-2 UK variant (B.1.1.7)
[2] = test system: SARS-COV-2 Brazilian variant (P.1)
[3] = test system: SARS-COV-2 Omicron (sublineage BA.1) variant (B.1.1.529/BA.1)
[4] = test system: SARS-COV-2 Indian variant (δ type) (B.1.617.2)
[5] = target: receptor binding domain (RBD) in the SARS-COV-2 Omicron (sublineage BA.1) variant (B.1.1.529/BA.1) (Severe acute respiratory syndrome coronavirus 2, UniProt P0DTC2, E484A/G339D/G446S/G496S/K417N/N440K/N501Y/Q493R/Q498R/S371L/S373P/S375F/S477N/T478K/Y505H)
[6] = target: receptor binding domain (RBD) in the SARS-COV-2 Brazilian variant (P.1) (Severe acute respiratory syndrome coronavirus 2, UniProt P0DTC2, E484K/K417T/N501Y)
[7] = target: receptor binding domain (RBD) in the SARS-COV-2 Indian variant (κ type (B.1.617.1)) (Severe acute respiratory syndrome coronavirus 2, UniProt P0DTC2, E484Q/L452R)
[8] = target: receptor binding domain (RBD) in the SARS-COV-2 Indian variant (δ type (B.1.617.2)) (Severe acute respiratory syndrome coronavirus 2, UniProt P0DTC2, L452R/T478K)
[9] = target: receptor binding domain (RBD) in the SARS-COV-2 UK variant (B.1.1.7) (Severe acute respiratory syndrome coronavirus 2, UniProt P0DTC2, N501Y)
[10] = target: receptor binding domain (RBD) in the SARS-COV-2 South African variant (B.1.351) (Severe acute respiratory syndrome coronavirus 2, UniProt P0DTC2, E484K/K417N/N501Y)

Row | Sequence | pIC50 [1] | pIC50 [3] | pIC50 [4] | other results
1 | DKEWILQKIYEIMRRLDEEGHAEASMRVSDLIYEFMKKD [Ce9] | 7.89 |  |  | pIC50 [2]: 5.92
2 | DKLWILQKIYEIMVRLDEEGHGEASLMVSDLIYEFMKRD [Ce172] | 11.66 | 10.42 | 9.28 | 
3 | DKEWILQKIYEIMRRLDEEGHGEASLRVSDLIYEFMKRD [Ce59] |  |  | 7.80 | 
4 | DKEWILQKIYEIMRRLDEEGHGEASLRVSDLIYEFMKKD [Ce41] | 9.17 |  |  | binding activity to the receptor binding domain (RBD) [5]: cannot maintain binding; binding activity to the receptor binding domain (RBD) [6]: high binding activity; binding activity to the receptor binding domain (RBD) [7]: high binding activity; binding activity to the receptor binding domain (RBD) [8]: high binding activity; binding activity to the receptor binding domain (RBD) [9]: high binding activity; dissociation from the RBD once bound [9]: does not dissociate at all; binding activity to the receptor binding domain (RBD) [10]: high binding activity
5 | DKEWILYKIYEIMVRLDEEGHGEASLMVSDLIYEFMKRD [Ce149] | 11.68 | 9.00 | 9.82 | 
